Assay results published in US10689344B2, “Biphenylamide derivative Hsp90 inhibitors” (University of Kansas, priority 2013, dated 2020).
Each block holds one compound with its values, some of them ahead of it.

Experiments:
[1] = system: SKBr3 (estrogen receptor negative, HER2 over-expressing breast cancer cells); assay: Anti-proliferation assay (MTS/PMS, 72 h), SKBr3; format: cell-based; conditions: Homo sapiens
Description: (§1) Cells were maintained in a 1:1 mixture of Advanced DMEM/F12 (Gibco) supplemented with non-essential amino acids, L-glutamine (2 mM), streptomycin (500 μg/mL), penicillin (100 units/mL), and 10% FBS. Cells were grown to confluence in a humidified atmosphere (37° C., 5% CO2), seeded (2000/well, 100 μL) in 96-well plates, and allowed to attach overnight. Compound at varying concentrations in DMSO (1% DMSO final concentration) was added, and cells were returned to the incubator for 72 h. At 72 h, the number of viable cells was determined using an MTS/PMS cell proliferation kit (Promega) per the manufacturer's instructions. Cells incubated in 1% DMSO were used at 100% proliferation, and values were adjusted accordingly. IC50 values were calculated from separate experiments performed in triplicate using GraphPad Prism.
(§2) Anti-proliferative studies with the compounds described herein were performed against the SKBr3 (estrogen receptor negative, HER2 over-expressing breast cancer cells) and MCF-7 (estrogen receptor positive breast cancer cells) breast cancer cell lines. […] In some embodiments, in contrast to the novobiocin derivatives, which usually manifest better anti-proliferative activities against the SKBr3 cell line, the biphenyl derivatives described herein were more efficacious against the MCF-7 cell line. In general, all substitutions on the phenyl ring were determined to be beneficial, consistent with the existence of a hydrophobic pocket in this region of the Hsp90 C-terminal binding site.

[2] = system: MCF-7 (estrogen receptor positive breast cancer cells); assay: Anti-proliferation assay (MTS/PMS, 72 h), MCF-7; format: cell-based; conditions: Homo sapiens
Description: as §1, §2

[3] = SK-BR-3, Table 3, substituted para-para biphenyl core
[4] = MCF7, Table 3, substituted para-para biphenyl core
[5] = SK-BR-3, Table 1, ortho, meta and para biphenyl cores
[6] = SK-BR-3, Table 6, para-para biphenyl core with substituted benzylamide
[7] = MCF7, Table 1, ortho, meta and para biphenyl cores
[8] = MCF7, Table 6, para-para biphenyl core with substituted benzylamide
[9] = SK-BR-3, Table 8, para-para biphenyl core with substituted biphenylamide group
[10] = MCF7, Table 8, para-para biphenyl core with substituted biphenylamide group
[11] = SK-BR-3, Table 2, para-meta biphenyl core with substituted benzylamide
[12] = MCF7, Table 2, para-meta biphenyl core with substituted benzylamide

Structure (SMILES): COc1cccc(-c2cc(C(=O)Nc3ccc(-c4ccc(OC5CCN(C)CC5)cc4)c([N+](=O)[O-])c3)ccc2OC)c1 [Compound 34c, 3′,6-dimethoxy-N-(4′-((1-methylpiperidin-4-yl)oxy)-2-nitro-[1,1′-biphenyl]-4-yl)-[1,1′-biphenyl]-3-carboxamide]
- IC50 [1, 3]: 2480 ± 770 nM
- IC50 [2, 4]: 3320 ± 250 nM

Structure (SMILES): COc1cccc(-c2cc(C(=O)Nc3ccc(-c4ccc(OC5CCN(C)CC5)cc4)c(OC)c3)ccc2OC)c1 [Compound 29g, 3′,6-dimethoxy-N-(2-methoxy-4′-((1-methylpiperidin-4-yl)oxy)-[1,1′-biphenyl]-4-yl)-[1,1′-biphenyl]-3-carboxamide]
- IC50 [1, 3]: 900 ± 80 nM
- IC50 [2, 4]: 1500 ± 80 nM

Structure (SMILES): COc1cccc(-c2cc(C(=O)Nc3ccc(-c4ccc(OC5CCN(C)CC5)c(CCC(C)C)c4)cc3)ccc2OC)c1
- IC50 ([1]; SK-BR-3, Table 10, longer alkyl chain substituted biphenyl core): 1180 ± 40 nM
- IC50 ([2]; MCF7, Table 10, longer alkyl chain substituted biphenyl core): 1430 ± 220 nM

Structure (SMILES): CN1CCC(Oc2ccc(-c3ccc(NC(=O)c4ccc(Cl)cc4)cc3)cc2)CC1 [Compound 41b, 4-chloro-N-(4′-((1-methylpiperidin-4-yl)oxy)-[1,1′-biphenyl]-4-yl)benzamide]
- IC50 [1, 5]: 570 ± 10 nM
- IC50 [1, 6]: 570 ± 10 nM
- IC50 [2, 7]: 520 ± 30 nM
- IC50 [2, 8]: 520 ± 30 nM

Structure (SMILES): CN1CCC(Oc2ccc(-c3ccc(NC(=O)c4ccc(C(C)(C)C)cc4)cc3)cc2)CC1 [Compound 41g, 4-(tert-butyl)-N-(4′-((1-methylpiperidin-4-yl)oxy)-[1,1′-biphenyl]-4-yl)benzamide]
- IC50 [1, 5]: 1260 ± 370 nM
- IC50 [1, 6]: 1260 ± 370 nM
- IC50 [2, 7]: 1080 ± 80 nM
- IC50 [2, 8]: 1080 ± 80 nM

Structure (SMILES): COc1cccc(-c2cc(C(=O)Nc3ccc(-c4ccc(OC5CCN(C)CC5)cc4)cc3[N+](=O)[O-])ccc2OC)c1 [Compound 34d, 3′,6-dimethoxy-N-(4′-((1-methylpiperidin-4-yl)oxy)-3-nitro-[1,1′-biphenyl]-4-yl)-[1,1′-biphenyl]-3-carboxamide]
- IC50 [1, 3]: 920 nM
- IC50 [2, 4]: 1150 ± 10 nM

Structure (SMILES): COc1cccc(-c2cc(C(=O)Nc3ccc(-c4ccc(OC5CCN(C)CC5)c(Cl)c4)cc3)ccc2OC)c1 [Compound 29i, N-(3′-chloro-4′-((1-methylpiperidin-4-yl)oxy)-[1,1′-biphenyl]-4-yl)-3′,6-dimethoxy-[1,1′-biphenyl]-3-carboxamide]
- IC50 [1, 3]: 1840 ± 570 nM
- IC50 [2, 4]: 1480 ± 120 nM

Structure (SMILES): CN1CCC(Oc2ccc(-c3cccc(NC(=O)c4ccc(Cl)cc4)c3)cc2)CC1 [Compound 6h, 4-Chloro-N-(4′-((1-methylpiperidin-4-yl)oxy)-[1,1′-biphenyl]-3-yl)benzamide]
- IC50 [1, 5]: 3630 ± 1030 nM
- IC50 [1, 11]: 3630 ± 1030 nM
- IC50 [2, 7]: 2230 ± 50 nM
- IC50 [2, 12]: 2230 ± 50 nM

Structure (SMILES): COc1cccc(C(=O)Nc2ccc(-c3ccc(OC4CCN(C)CC4)cc3)cc2)c1 [Compound 41i, 3-methoxy-N-(4′-((1-methylpiperidin-4-yl)oxy)-[1,1′-biphenyl]-4-yl)benzamide]
- IC50 [1, 6]: 2870 ± 510 nM
- IC50 [2, 8]: 5310 ± 700 nM

Structure (SMILES): CN1CCC(Oc2ccc(-c3cccc(NC(=O)c4ccccc4)c3)cc2)CC1 [Compound 6b, N-(4′-((1-methylpiperidin-4-yl)oxy)-[1,1′-biphenyl]-3-yl)benzamide]
- IC50 [1, 11]: 18900 ± 950 nM
- IC50 [2, 12]: 12000 ± 570 nM

Structure (SMILES): Cc1ccc(C(=O)Nc2cccc(-c3ccc(OC4CCN(C)CC4)cc3)c2)cc1 [Compound 6c, 4-methyl-N-(4′-((1-methylpiperidin-4-yl)oxy)-[1,1′-biphenyl]-3-yl)benzamide]
- IC50 [1, 11]: 5270 nM
- IC50 [2, 12]: 3920 ± 130 nM

Structure (SMILES): COc1cccc(-c2cc(C(=O)Nc3ccc(-c4ccc(OC5CCN(C)CC5)c(C)c4)cc3)ccc2OC)c1 [Compound 29a, 3′,6-dimethoxy-N-(3′-methyl-4′-((1-methylpiperidin-4-yl)oxy)-[1,1′-biphenyl]-4-yl)-[1,1′-biphenyl]-3-carboxamide]
- IC50 [1, 3]: 830 ± 30 nM
- IC50 [2, 4]: 1690 ± 80 nM

Structure (SMILES): CN1CCC(Oc2ccc(-c3ccc(NC(=O)c4cc(Cl)cc(Cl)c4)cc3)cc2)CC1 [Compound 41o, 3,5-dichloro-N-(4′-((1-methylpiperidin-4-yl)oxy)-[1,1′-biphenyl]-4-yl)benzamide]
- IC50 [1, 6]: 810 ± 280 nM
- IC50 [2, 8]: 1680 ± 130 nM

Structure (SMILES): COc1cccc(-c2cc(C(=O)Nc3ccc(-c4ccc(OC5CCN(C)CC5)cc4)c(C)c3)ccc2OC)c1 [Compound 29c, 3′,6-dimethoxy-N-(2-methyl-4′-((1-methylpiperidin-4-yl)oxy)-[1,1′-biphenyl]-4-yl)-[1,1′-biphenyl]-3-carboxamide]
- IC50 [1, 3]: 970 ± 10 nM
- IC50 [2, 4]: 1570 ± 560 nM

Structure (SMILES): CN1CCC(Oc2ccc(-c3ccc(NC(=O)c4cccc(Cl)c4)cc3)cc2)CC1 [Compound 41h, 3-chloro-N-(4′-((1-methylpiperidin-4-yl)oxy)-[1,1′-biphenyl]-4-yl)benzamide]
- IC50 [1, 6]: 1940 ± 370 nM
- IC50 [2, 8]: 2830 ± 690 nM

Structure (SMILES): COc1cccc(-c2cc(C(=O)Nc3ccc(-c4ccc(OC5CCN(C)CC5)cc4C)cc3)ccc2OC)c1 [Compound 29b, 3′,6-dimethoxy-N-(2′-methyl-4′-((1-methylpiperidin-4-yl)oxy)-[1,1′-biphenyl]-4-yl)-[1,1′-biphenyl]-3-carboxamide]
- IC50 [1, 3]: 1180 ± 110 nM
- IC50 [2, 4]: 1210 ± 30 nM

Structure (SMILES): Cc1ccc(C(=O)Nc2ccc(-c3ccc(OC4CCN(C)CC4)cc3)cc2)cc1 [Compound 41e, 4-methyl-N-(4′-((1-methylpiperidin-4-yl)oxy)-[1,1′-biphenyl]-4-yl)benzamide]
- IC50 [1, 6]: 980 ± 190 nM
- IC50 [2, 8]: 1270 ± 130 nM

Structure (SMILES): COc1cccc(C(=O)Nc2cccc(-c3ccc(OC4CCN(C)CC4)cc3)c2)c1 [Compound 6g, 3-methoxy-N-(4′-((1-methylpiperidin-4-yl)oxy)-[1,1′-biphenyl]-3-yl)benzamide]
- IC50 [1, 11]: 8360 ± 1350 nM
- IC50 [2, 12]: 4500 ± 460 nM

Structure (SMILES): CN1CCC(Oc2ccc(-c3cccc(NC(=O)c4cc(Cl)cc(Cl)c4)c3)cc2)CC1 [Compound 6o, 3,5-Dichloro-N-(4′-((1-methylpiperidin-4-yl)oxy)-[1,1′-biphenyl]-3-yl)benzamide]
- IC50 [1, 11]: 4230 ± 90 nM
- IC50 [2, 12]: 3720 ± 150 nM

Structure (SMILES): CN1CCC(Oc2ccc(-c3cccc(NC(=O)c4ccccc4Cl)c3)cc2)CC1 [Compound 6k, 2-Chloro-N-(4′-((1-methylpiperidin-4-yl)oxy)-[1,1′-biphenyl]-3-yl)benzamide]
- IC50 [1, 11]: 7870 ± 480 nM
- IC50 [2, 12]: 5170 ± 490 nM

The next lines start with the values.

- IC50 ([1]; SK-BR-3, Table 7, para-para biphenyl core with modified ether groups): 1020 ± 50 nM
- IC50 ([2]; MCF7, Table 7, para-para biphenyl core with modified ether groups): 870 ± 40 nM
Structure (SMILES): COc1cccc(-c2cc(C(=O)Nc3ccc(-c4ccc(OCCCN(C)C)cc4)cc3)ccc2OC)c1 [Compound 56c, N-(4′-(3-(dimethylamino)propoxy)-[1,1′-biphenyl]-4-yl)-3′,6-dimethoxy-[1,1′-biphenyl]-3-carboxamide]

- IC50 [1, 5]: 2600 ± 710 nM
- IC50 [2, 7]: 2070 ± 90 nM
Structure (SMILES): CN1CCC(Oc2cccc(-c3cccc(NC(=O)C45CC6CC(CC(C6)C4)C5)c3)c2)CC1 [Compound 61b, N-(3′-((1-methylpiperidin-4-yl)oxy)-[1,1′-biphenyl]-3-yl)adamantane-1-carboxamide]

- IC50 [1, 9]: 810 ± 140 nM
- IC50 [2, 10]: 1020 ± 80 nM
Structure (SMILES): COc1cccc(-c2cccc(C(=O)Nc3ccc(-c4ccc(OC5CCN(C)CC5)cc4)cc3)c2)c1 [Compound 49b, 3′-methoxy-N-(4′-((1-methylpiperidin-4-yl)oxy)-[1,1′-biphenyl]-4-yl)-[1,1′-biphenyl]-3-carboxamide]

- IC50 [1, 5]: 3360 ± 200 nM
- IC50 [2, 7]: 1930 ± 330 nM
Structure (SMILES): CN1CCC(Oc2cccc(-c3cccc(NC(=O)c4ccc(C(C)(C)C)cc4)c3)c2)CC1 [Compound 61i, 4-(tert-butyl)-N-(3′-((1-methylpiperidin-4-yl)oxy)-[1,1′-biphenyl]-3-yl)benzamide]

- IC50 [1, 5]: 4150 ± 960 nM
- IC50 [2, 7]: 4890 ± 80 nM
Structure (SMILES): CN1CCC(Oc2cccc(-c3cccc(NC(=O)c4ccc(Cl)cc4)c3)c2)CC1 [Compound 61g, 4-chloro-N-(3′-((1-methylpiperidin-4-yl)oxy)-[1,1′-biphenyl]-3-yl)benzamide]

- IC50 [1, 9]: 510 ± 110 nM
- IC50 [2, 10]: 840 ± 10 nM
Structure (SMILES): COc1ccc(C(=O)Nc2ccc(-c3ccc(OC4CCN(C)CC4)cc3)cc2)cc1-c1ccccc1 [Compound 49a, 6-methoxy-N-(4′-((1-methylpiperidin-4-yl)oxy)-[1,1′-biphenyl]-4-yl)-[1,1′-biphenyl]-3-carboxamide]

- IC50 [1, 6]: 640 ± 80 nM
- IC50 [2, 8]: 580 ± 20 nM
Structure (SMILES): CN1CCC(Oc2ccc(-c3ccc(NC(=O)c4cc5ccccc5[nH]4)cc3)cc2)CC1 [Compound 47a, N-(4′-((1-methylpiperidin-4-yl)oxy)-[1,1′-biphenyl]-4-yl)-1H-indole-2-carboxamide]

- IC50 [1, 9]: 400 ± 70 nM
- IC50 [2, 10]: 1090 ± 280 nM
Structure (SMILES): COc1ccc(C(=O)Nc2ccc(-c3ccc(OC4CCN(C)CC4)cc3)cc2)cc1-c1cccc([N+](=O)[O-])c1 [Compound 49h, 6-methoxy-N-(4′-((1-methylpiperidin-4-yl)oxy)-[1,1′-biphenyl]-4-yl)-3′-nitro-[1,1′-biphenyl]-3-carboxamide]

- IC50 [1, 9]: 330 ± 30 nM
- IC50 [2, 10]: 320 ± 90 nM
Structure (SMILES): COc1ccc(C(=O)Nc2ccc(-c3ccc(OC4CCN(C)CC4)cc3)cc2)cc1-c1cccc(Cl)c1 [Compound 49f, 3′-chloro-6-methoxy-N-(4′-((1-methylpiperidin-4-yl)oxy)-[1,1′-biphenyl]-4-yl)-[1,1′-biphenyl]-3-carboxamide]
